Test results: patent US20230339889A1, “DERIVATIVES OF 2-OXO-N-(4-(PYRIMIDIN-4-YLOXY/THIO)PHENYL)-1,2-DIHYDROPYRIDINE-3-CARBOXAMIDE FOR USE AS PROTEIN KINASE INHIBITORS FOR THERAPY” (AUCENTRA THERAPEUTICS PTY LTD, priority 2020, published 2023)

Tests used:
MV4-11 = test: Proliferation assay (MTT, leukaemia cancer cell line); type: cell-based; details: Homo sapiens; 1 µM compound, MV4-11 cells
From the text: Compounds from Example 1 were subjected to standard resazurin and MTT assays on solid tumour and leukaemia cancer cell lines, respectively, as previously reported (Wang S et al., J Med Chem 47:1662-1675, 2004 and Diab S et al., CheMedChem 9:962-972, 2014).

CDK2E = CDK2E (Homo sapiens, UniProt P24941); test: ADP Glo Kinase assay; type: biochemical; details: 1 µM compound; read-out: % Residual enzymatic activity at 1 µM CDK2E
Protocol: Inhibition of CDKs and FLT3 were determined using ADP Glo Kinase assays, as previously described in International Patent Publication No WO 2017/020065.

TYRO3 = target: T1, TYRO3 (Homo sapiens, UniProt Q06418); test: Filter-binding radiometric kinase activity assay (KinaseProfiler, Eurofins); type: biochemical; details: 1 µM compound; read-out: % Residual enzymatic activity at 1 µM TYRO3
T1 construct: purchased Eurofins Discovery (Kinase Profiler service)
T1 sequence (Q06418 41-890): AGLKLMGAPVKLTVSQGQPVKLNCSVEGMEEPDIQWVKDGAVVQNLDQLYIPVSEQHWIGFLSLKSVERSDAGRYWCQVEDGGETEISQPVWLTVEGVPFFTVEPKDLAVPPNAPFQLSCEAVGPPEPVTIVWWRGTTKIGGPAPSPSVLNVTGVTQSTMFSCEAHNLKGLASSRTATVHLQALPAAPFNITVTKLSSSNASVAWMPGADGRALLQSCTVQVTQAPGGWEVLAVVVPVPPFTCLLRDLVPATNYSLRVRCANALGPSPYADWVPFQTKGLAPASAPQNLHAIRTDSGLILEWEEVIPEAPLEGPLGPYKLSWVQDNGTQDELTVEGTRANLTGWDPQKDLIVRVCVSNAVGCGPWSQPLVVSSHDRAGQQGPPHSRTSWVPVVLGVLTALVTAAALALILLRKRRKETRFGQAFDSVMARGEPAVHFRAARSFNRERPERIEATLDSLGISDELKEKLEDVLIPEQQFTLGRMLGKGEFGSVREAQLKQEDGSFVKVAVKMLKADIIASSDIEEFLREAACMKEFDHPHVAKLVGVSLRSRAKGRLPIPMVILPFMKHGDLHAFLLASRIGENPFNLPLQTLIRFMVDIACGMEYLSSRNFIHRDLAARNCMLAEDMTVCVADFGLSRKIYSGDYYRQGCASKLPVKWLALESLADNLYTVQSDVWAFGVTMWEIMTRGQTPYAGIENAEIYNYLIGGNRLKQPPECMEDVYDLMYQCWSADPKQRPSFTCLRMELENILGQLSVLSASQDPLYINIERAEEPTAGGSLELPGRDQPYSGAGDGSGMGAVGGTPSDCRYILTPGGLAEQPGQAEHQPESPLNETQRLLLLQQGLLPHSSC
Protocol: (§1) Filter-binding radiometric kinase activity assay (Kinase Profiler™) from Eurofins Discovery was used to determine the % of inhibition and/or IC50 values. […] The reaction is initiated by the addition of the Mg/ATP mixture. After incubation for 40 minutes at room temperature, the reaction is stopped by the addition of phosphoric acid to a concentration of 0.5%. 10 µL of the reaction is then spotted onto a P30 filter mat and washed four times for 4 minutes in 0.425% phosphoric acid and once in methanol prior to drying and scintillation counting. The IC50 values were derived by fitting a sigmoidal dose-response curve to a plot of assay readout over inhibitor concentration. All fits were computed with the GraphPad Prism Software (San Diego, CA, United States of America). Ki values were derived from IC5o values using Cheng Prusoff equation (Cheng Y et al., Biochem Pharmacol 22(23):3099-3108, 1973).

MET = target: T2, MET (Homo sapiens, UniProt P08581); test: as above; type: biochemical; details: 1 µM compound; read-out: % Residual enzymatic activity at 1 µM MET
T2 construct: purchased Eurofins Discovery (Kinase Profiler service)
Protocol: as §1

Mer = target: T3, Mer (Homo sapiens, UniProt Q12866); test: as above; type: biochemical; details: 1 µM compound; read-out: % Residual enzymatic activity at 1 µM Mer
T3 construct: purchased Eurofins Discovery (Kinase Profiler service)
T3 sequence (Q12866 21-999): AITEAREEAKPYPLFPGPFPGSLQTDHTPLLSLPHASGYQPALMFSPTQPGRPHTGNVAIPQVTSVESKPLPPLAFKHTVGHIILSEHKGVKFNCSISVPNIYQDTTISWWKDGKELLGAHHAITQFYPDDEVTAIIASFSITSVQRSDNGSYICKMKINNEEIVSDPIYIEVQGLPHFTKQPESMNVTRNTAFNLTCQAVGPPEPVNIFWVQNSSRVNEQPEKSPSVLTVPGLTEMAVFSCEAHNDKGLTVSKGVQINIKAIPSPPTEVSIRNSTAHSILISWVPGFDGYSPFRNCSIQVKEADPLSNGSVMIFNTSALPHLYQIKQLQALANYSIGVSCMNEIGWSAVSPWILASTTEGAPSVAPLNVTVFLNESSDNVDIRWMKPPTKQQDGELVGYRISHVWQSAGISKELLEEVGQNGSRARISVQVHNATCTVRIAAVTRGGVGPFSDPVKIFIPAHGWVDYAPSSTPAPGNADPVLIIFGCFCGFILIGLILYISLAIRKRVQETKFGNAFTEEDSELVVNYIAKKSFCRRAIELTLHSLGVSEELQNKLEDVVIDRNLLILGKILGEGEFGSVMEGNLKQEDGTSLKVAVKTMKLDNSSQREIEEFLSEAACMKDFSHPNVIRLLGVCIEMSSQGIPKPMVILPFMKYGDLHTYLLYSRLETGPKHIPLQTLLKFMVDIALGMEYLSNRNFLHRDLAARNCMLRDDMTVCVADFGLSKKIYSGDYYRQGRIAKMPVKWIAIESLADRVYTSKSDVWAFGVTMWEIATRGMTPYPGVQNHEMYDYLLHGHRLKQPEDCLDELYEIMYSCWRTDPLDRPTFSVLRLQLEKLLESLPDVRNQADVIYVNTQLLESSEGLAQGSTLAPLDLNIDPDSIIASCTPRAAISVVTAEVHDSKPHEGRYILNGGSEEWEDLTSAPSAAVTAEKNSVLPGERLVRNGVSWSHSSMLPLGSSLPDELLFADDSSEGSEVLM
Protocol: as §1

AXL = target: T4, AXL (Homo sapiens, UniProt P30530); test: as above; type: biochemical; details: 1 µM compound; read-out: % Residual enzymatic activity at 1 µM AXL
T4 construct: purchased Eurofins Discovery (Kinase Profiler service)
T4 sequence (P30530 26-894): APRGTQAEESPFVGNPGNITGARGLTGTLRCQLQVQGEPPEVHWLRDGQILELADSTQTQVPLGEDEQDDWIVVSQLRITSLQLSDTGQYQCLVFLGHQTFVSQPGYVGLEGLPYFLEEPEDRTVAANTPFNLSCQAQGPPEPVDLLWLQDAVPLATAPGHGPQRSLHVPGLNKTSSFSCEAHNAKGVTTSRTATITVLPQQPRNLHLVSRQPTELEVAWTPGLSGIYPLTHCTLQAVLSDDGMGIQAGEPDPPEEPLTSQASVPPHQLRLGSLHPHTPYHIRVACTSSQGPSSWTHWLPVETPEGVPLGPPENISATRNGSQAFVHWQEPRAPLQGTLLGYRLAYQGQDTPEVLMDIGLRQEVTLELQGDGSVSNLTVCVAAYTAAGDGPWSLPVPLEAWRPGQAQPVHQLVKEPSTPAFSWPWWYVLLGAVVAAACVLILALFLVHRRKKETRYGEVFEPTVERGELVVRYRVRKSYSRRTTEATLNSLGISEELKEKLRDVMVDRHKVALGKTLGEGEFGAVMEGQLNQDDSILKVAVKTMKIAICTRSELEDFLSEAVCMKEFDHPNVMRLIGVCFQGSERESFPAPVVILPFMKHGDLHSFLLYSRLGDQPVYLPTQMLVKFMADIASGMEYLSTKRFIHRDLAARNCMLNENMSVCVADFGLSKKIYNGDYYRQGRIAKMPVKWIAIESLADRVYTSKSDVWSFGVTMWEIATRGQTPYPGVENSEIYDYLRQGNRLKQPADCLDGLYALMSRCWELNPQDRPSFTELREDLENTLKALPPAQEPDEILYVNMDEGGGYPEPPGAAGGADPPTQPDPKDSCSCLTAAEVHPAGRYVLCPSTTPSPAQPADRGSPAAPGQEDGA
Protocol: as §1

T2 sequence (P08581 25-1390): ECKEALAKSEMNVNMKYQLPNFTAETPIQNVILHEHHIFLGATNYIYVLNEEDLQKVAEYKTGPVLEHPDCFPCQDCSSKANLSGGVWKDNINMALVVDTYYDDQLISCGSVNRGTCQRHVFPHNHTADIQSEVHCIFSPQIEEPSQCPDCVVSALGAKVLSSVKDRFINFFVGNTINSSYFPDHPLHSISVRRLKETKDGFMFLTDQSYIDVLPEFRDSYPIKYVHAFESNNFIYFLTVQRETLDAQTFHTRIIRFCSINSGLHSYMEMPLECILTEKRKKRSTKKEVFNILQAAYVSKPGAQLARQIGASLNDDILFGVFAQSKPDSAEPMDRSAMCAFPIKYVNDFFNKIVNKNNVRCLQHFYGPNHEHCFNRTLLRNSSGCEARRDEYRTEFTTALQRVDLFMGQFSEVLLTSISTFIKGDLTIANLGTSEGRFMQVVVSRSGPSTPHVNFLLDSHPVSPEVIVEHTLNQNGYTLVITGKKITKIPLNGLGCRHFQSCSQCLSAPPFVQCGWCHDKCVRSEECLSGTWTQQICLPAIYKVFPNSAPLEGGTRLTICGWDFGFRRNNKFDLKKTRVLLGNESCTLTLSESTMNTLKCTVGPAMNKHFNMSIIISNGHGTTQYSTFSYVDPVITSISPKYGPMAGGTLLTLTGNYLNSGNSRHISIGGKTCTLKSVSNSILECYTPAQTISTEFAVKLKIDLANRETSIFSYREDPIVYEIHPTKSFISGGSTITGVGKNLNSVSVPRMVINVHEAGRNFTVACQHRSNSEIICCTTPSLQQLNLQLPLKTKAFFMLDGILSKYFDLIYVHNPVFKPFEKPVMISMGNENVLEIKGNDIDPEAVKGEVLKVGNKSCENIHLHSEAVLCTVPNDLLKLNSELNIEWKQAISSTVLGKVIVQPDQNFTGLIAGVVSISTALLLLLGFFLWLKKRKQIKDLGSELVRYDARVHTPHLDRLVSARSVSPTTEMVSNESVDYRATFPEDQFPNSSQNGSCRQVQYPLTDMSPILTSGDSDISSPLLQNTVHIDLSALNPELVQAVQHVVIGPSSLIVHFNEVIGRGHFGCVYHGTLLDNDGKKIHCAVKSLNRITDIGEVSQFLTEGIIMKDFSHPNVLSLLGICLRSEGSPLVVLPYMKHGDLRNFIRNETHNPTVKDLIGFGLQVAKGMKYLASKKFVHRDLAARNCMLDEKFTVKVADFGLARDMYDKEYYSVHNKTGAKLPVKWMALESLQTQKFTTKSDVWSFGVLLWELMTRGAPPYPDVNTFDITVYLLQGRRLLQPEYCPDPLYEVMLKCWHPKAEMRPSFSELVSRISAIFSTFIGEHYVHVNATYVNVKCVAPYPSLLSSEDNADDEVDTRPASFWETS

SMILES	remaining activity at 1 µM (CDK2E)	remaining activity at 1 µM (TYRO3)	remaining activity at 1 µM (MET)	remaining activity at 1 µM (Mer)	remaining activity at 1 µM (AXL)	activity at 1 µM (MV4-11)
Nc1ncnc(Oc2ccc(NC(=O)c3cccn(-c4ccc(F)cc4)c3=O)c(Cl)c2)c1F [Cmpd 38, N-(4-((6-amino-5-fluoropyrimidin-4-yl)oxy)-2-chlorophenyl)-1-(4-fluorophenyl)-2-oxo-1,2-dihydropyridine-3-carboxamide]	90%	50%	68%	92%	69%	43%
Cc1ccc(-n2cccc(C(=O)Nc3ccc(Oc4ncnc(N)c4Cl)cc3F)c2=O)cc1 [Cmpd 15, N-(4-((6-amino-5-chloropyrimidin-4-yl)oxy)-2-fluorophenyl)-2-oxo-1-(p-tolyl)-1,2-dihydropyridine-3-carboxamide]	–	39%	74%	99%	64%	26%
Nc1ncnc(Sc2ccc(NC(=O)c3cccn(-c4ccc(F)cc4)c3=O)cc2F)c1F [Cmpd 19, N-(4-((6-amino-5-fluoropyrimidin-4-yl)thio)-3-fluorophenyl)-1-(4-fluorophenyl)-2-oxo-1,2-dihydropyridine-3-carboxamide]	93%	89%	78%	99%	84%	6%
Nc1ncnc(Sc2ccc(NC(=O)c3cccn(-c4ccc(F)cc4)c3=O)c(F)c2)c1Cl [Cmpd 39, N-(4-((6-amino-5-chloropyrimidin-4-yl)thio)-2-fluorophenyl)-1-(4-fluorophenyl)-2-oxo-1,2-dihydropyridine-3-carboxamide]	88%	–	70%	82%	87%	4%

The next lines start with results.

remaining activity at 1 µM (CDK2E)	remaining activity at 1 µM (TYRO3)	remaining activity at 1 µM (MET)	remaining activity at 1 µM (Mer)	remaining activity at 1 µM (AXL)	SMILES	activity at 1 µM (MV4-11)
96%	70%	87%	99%	97%	Nc1ncnc(Nc2ccc(NC(=O)c3cccn(-c4ccc(F)cc4)c3=O)cc2F)c1Cl [Cmpd 36, N-(4-((6-amino-5-chloropyrimidin-4-yl)amino)-3-fluorophenyl)-1-(4-fluorophenyl)-2-oxo-1,2-dihydropyridine-3-carboxamide]	4%
97%	14%	60%	99%	70%	Cc1ccc(-n2cccc(C(=O)Nc3ccc(Oc4ncnc(N)c4F)c(F)c3)c2=O)cc1 [Cmpd 35, N-(4-((6-amino-5-fluoropyrimidin-4-yl)oxy)-3-fluorophenyl)-2-oxo-1-(p-tolyl)-1,2-dihydropyridine-3-carboxamide]	6%
93%	2%	4%	54%	31%	Nc1ncnc(Oc2cc(F)c(NC(=O)c3cccn(-c4ccc(F)cc4)c3=O)cc2F)c1F [Cmpd 20, N-(4-((6-amino-5-fluoropyrimidin-4-yl)oxy)-2,5-difluorophenyl)-1-(4-fluorophenyl)-2-oxo-1,2-dihydropyridine-3-carboxamide]	5%
–	89%	87%	88%	92%	Nc1ncc(Cl)c(Oc2ccc(NC(=O)c3cccn(-c4ccc(F)cc4)c3=O)c(F)c2)n1 [Cmpd 25, N-(4-((2-amino-5-chloropyrimidin-4-yl)oxy)-2-fluorophenyl)-1-(4-fluorophenyl)-2-oxo-1,2-dihydropyridine-3-carboxamide]	65%
–	94%	74%	87%	99%	Nc1ncc(Cl)c(Oc2ccc(NC(=O)c3cccn(-c4ccc(F)cc4)c3=O)cc2F)n1 [Cmpd 24, N-(4-((2-amino-5-chloropyrimidin-4-yl)oxy)-3-fluorophenyl)-1-(4-fluorophenyl)-2-oxo-1,2-dihydropyridine-3-carboxamide]	27%
